{"source": "patent US6355799B1", "about": "“Substituted benzene compounds, process for their preparation, and herbicidal and defoliant compositions containing them” (ISK Americas Incorporated, priority 1997, dated 2002)", "type_in_all_cases": "in vivo", "key": {"[1]": {"test_system": "redroot pigweed (Amaranthus retroflexus, AMARE)", "assay": "Pre-emerge test, greenhouse herbicide activity screening", "conditions": "pre-emerge, rated 14 days after application, 0 = no damage, 100 = complete death", "method_in_brief": "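Compounds in acetone were track-sprayed at 187 l/ha, 15–1000 g ai/ha, onto sandy loam pots. Pre-emerge seeds were sown one day before spraying, with surface watering afterwards. Post-emerge plants were at the 2–3 leaf stage and sprayed with 0.25% v/v non-ionic surfactant. Injury was rated 0–100 at 14 days.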"}, "[2]": {"test_system": "barnyardgrass (Echinochloa crus-galli, ECHCG)", "assay": "Pre-emerge test, greenhouse herbicide activity screening", "conditions": "pre-emerge, rated 14 days after application, 0 = no damage, 100 = complete death", "method_in_brief": "(§1)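 Rating: 0–100 visual injury, 14 DAA. Application: acetone, 187 l/ha, 15–1000 g ai/ha, flat-fan track sprayer with nozzle 40–45 cm above soil or canopy. Post-emerge runs used 0.25% v/v surfactant on 2–3 leaf plants.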"}, "[3]": {"test_system": "common ragweed (Ambrosia artemisizfolia L., AMBEL)", "assay": "Pre-emerge test, greenhouse herbicide activity screening", "conditions": "pre-emerge, rated 14 days after application, 0 = no damage, 100 = complete death", "method_in_brief": "as §1"}, "[4]": {"test_system": "green foxtail (Setaria viridis, SETVI)", "assay": "Pre-emerge test, greenhouse herbicide activity screening", "conditions": "pre-emerge, rated 14 days after application, 0 = no damage, 100 = complete death", "method_in_brief": "as §1"}, "[5]": {"test_system": "ivyleaf morningglory (Ipomoea hederacea, IPOHE)", "assay": "Pre-emerge test, greenhouse herbicide activity screening", "conditions": "pre-emerge, rated 14 days after application, 0 = no damage, 100 = complete death", "method_in_brief": "as §1"}, "[6]": {"test_system": "johnsongrass (Sorghum halepense, SORHA)", "assay": "Pre-emerge test, greenhouse herbicide activity screening", "conditions": "pre-emerge, rated 14 days after application, 0 = no damage, 100 = complete death", "method_in_brief": "as §1"}, "[7]": {"test_system": "lambsquarters (Chenopodium album, CHEAL)", "assay": "Pre-emerge test, greenhouse herbicide activity screening", "conditions": "pre-emerge, rated 14 days after application, 0 = no damage, 100 = complete death", "method_in_brief": "as §1"}, "[8]": {"test_system": "large crabgrass (Digitaria sanguinalis, DIGSA)", "assay": "Pre-emerge test, greenhouse herbicide activity screening", "conditions": "pre-emerge, rated 14 days after application, 0 = no damage, 100 = complete death", "method_in_brief": "as §1"}, "[9]": {"test_system": "sicklepod (Cassia obtusifolia, CASOB)", "assay": "Pre-emerge test, greenhouse herbicide activity screening", "conditions": "pre-emerge, rated 14 days after application, 0 = no damage, 100 = complete death", "method_in_brief": "as §1"}, "[10]": {"test_system": "velvetleaf (Abutilon theophrasti, ABUTH)", "assay": "Pre-emerge test, greenhouse herbicide activity screening", "conditions": "pre-emerge, rated 14 days after application, 0 = no damage, 100 = complete death", "method_in_brief": "as §1"}, "[11]": {"test_system": "field corn (Zea mays L., var. Dekalb 535, CORN)", "assay": "Pre-emerge test, crop safety", "conditions": "pre-emerge, rated 14 days after application, 0 = no damage, 100 = complete death", "method_in_brief": "(§2)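 Compounds in acetone were track-sprayed at 15-1000 g ai/ha (187 l/ha) on sandy loam pots: pre-emerge one day after seeding, post-emerge at 2-3 leaf stage with 0.25% v/v non-ionic surfactant. Phytotoxicity was rated 14 days later on a 0 (no damage) to 100 (complete death) scale.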"}, "[12]": {"test_system": "upland rice (Oryza sp., var. Tebonnet, RICE)", "assay": "Pre-emerge test, crop safety", "conditions": "pre-emerge, rated 14 days after application, 0 = no damage, 100 = complete death", "method_in_brief": "as §2"}, "[13]": {"test_system": "barnyardgrass (Echinochloa crus-galli, ECHCG)", "assay": "Post-emerge test, greenhouse herbicide activity screening", "conditions": "phytotoxicity rating 0-100 (0 no damage, 100 complete death), 14 days after application", "method_in_brief": "(§3)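 Each test used a mechanized track sprayer delivering 187 l/ha of acetone solution at 15–1000 g ai/ha. Post-emerge foliage at 2–3 leaves was treated with added 0.25% v/v non-ionic surfactant and bottom-watered only. Injury was assessed on day 14, where 100 means total kill.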"}, "[14]": {"test_system": "common ragweed (Ambrosia artemisizfolia L., AMBEL)", "assay": "Post-emerge test, greenhouse herbicide activity screening", "conditions": "phytotoxicity rating 0-100 (0 no damage, 100 complete death), 14 days after application", "method_in_brief": "as §3"}, "[15]": {"test_system": "green foxtail (Setaria viridis, SETVI)", "assay": "Post-emerge test, greenhouse herbicide activity screening", "conditions": "phytotoxicity rating 0-100 (0 no damage, 100 complete death), 14 days after application", "method_in_brief": "as §3"}, "[16]": {"test_system": "ivyleaf morningglory (Ipomoea hederacea, IPOHE)", "assay": "Post-emerge test, greenhouse herbicide activity screening", "conditions": "phytotoxicity rating 0-100 (0 no damage, 100 complete death), 14 days after application", "method_in_brief": "as §3"}, "[17]": {"test_system": "johnsongrass (Sorghum halepense, SORHA)", "assay": "Post-emerge test, greenhouse herbicide activity screening", "conditions": "phytotoxicity rating 0-100 (0 no damage, 100 complete death), 14 days after application", "method_in_brief": "as §3"}, "[18]": {"test_system": "lambsquarters (Chenopodium album, CHEAL)", "assay": "Post-emerge test, greenhouse herbicide activity screening", "conditions": "phytotoxicity rating 0-100 (0 no damage, 100 complete death), 14 days after application", "method_in_brief": "as §3"}, "[19]": {"test_system": "large crabgrass (Digitaria sanguinalis, DIGSA)", "assay": "Post-emerge test, greenhouse herbicide activity screening", "conditions": "phytotoxicity rating 0-100 (0 no damage, 100 complete death), 14 days after application", "method_in_brief": "as §3"}, "[20]": {"test_system": "redroot pigweed (Amaranthus retroflexus, AMARE)", "assay": "Post-emerge test, greenhouse herbicide activity screening", "conditions": "phytotoxicity rating 0-100 (0 no damage, 100 complete death), 14 days after application", "method_in_brief": "as §3"}, "[21]": {"test_system": "sicklepod (Cassia obtusifolia, CASOB)", "assay": "Post-emerge test, greenhouse herbicide activity screening", "conditions": "phytotoxicity rating 0-100 (0 no damage, 100 complete death), 14 days after application", "method_in_brief": "as §3"}, "[22]": {"test_system": "velvetleaf (Abutilon theophrasti, ABUTH)", "assay": "Post-emerge test, greenhouse herbicide activity screening", "conditions": "phytotoxicity rating 0-100 (0 no damage, 100 complete death), 14 days after application", "method_in_brief": "as §3"}, "[23]": {"test_system": "field corn (Zea mays L., var. Dekalb 535, CORN)", "assay": "Post-emerge test, crop safety", "conditions": "phytotoxicity rating 0-100 (0 no damage, 100 complete death), 14 days after application", "method_in_brief": "(§4)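 Plants grown in 10 cm pots of sandy loam mix received acetone-dissolved compounds through a moving flat-fan nozzle. Doses ranged from 15 to 1000 g ai/ha. Pre-emerge pots were seeded one day earlier, post-emerge pots 8–21 days earlier. Fourteen days on, each pot was graded 0–100 for damage.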"}, "[24]": {"test_system": "upland rice (Oryza sp., var. Tebonnet, RICE)", "assay": "Post-emerge test, crop safety", "conditions": "phytotoxicity rating 0-100 (0 no damage, 100 complete death), 14 days after application", "method_in_brief": "as §4"}}, "data": [{"smiles": "COc1c(Cl)cc(F)c(-n2c(=O)cc(C(F)(F)F)n(C)c2=O)c1NS(=O)(=O)c1ccc(C)cc1", "note": "[2-26]", "values": [{"measurement": "Pre-emerge Herbicidal Activity AMARE (phytotoxicity rating, scale 0-100)", "setting": "[1]; 63 g ai/ha", "value": 0}, {"measurement": "Pre-emerge Herbicidal Activity AMARE (phytotoxicity rating, scale 0-100)", "setting": "[1]; 250 g ai/ha", "value": 80}, {"measurement": "Pre-emerge Herbicidal Activity ECHCG (phytotoxicity rating, scale 0-100)", "setting": "[2]; 63 g ai/ha", "value": 0}, {"measurement": "Pre-emerge Herbicidal Activity ECHCG (phytotoxicity rating, scale 0-100)", "setting": "[2]; 250 g ai/ha", "value": 0}, {"measurement": "Pre-emerge Herbicidal Activity AMBEL (phytotoxicity rating, scale 0-100)", "setting": "[3]; 63 g ai/ha", "value": 0}, {"measurement": "Pre-emerge Herbicidal Activity AMBEL (phytotoxicity rating, scale 0-100)", "setting": "[3]; 250 g ai/ha", "value": 0}, {"measurement": "Pre-emerge Herbicidal Activity SETVI (phytotoxicity rating, scale 0-100)", "setting": "[4]; 63 g ai/ha", "value": 0}, {"measurement": "Pre-emerge Herbicidal Activity SETVI (phytotoxicity rating, scale 0-100)", "setting": "[4]; 250 g ai/ha", "value": 0}, {"measurement": "Pre-emerge Herbicidal Activity IPOHE (phytotoxicity rating, scale 0-100)", "setting": "[5]; 63 g ai/ha", "value": 0}, {"measurement": "Pre-emerge Herbicidal Activity IPOHE (phytotoxicity rating, scale 0-100)", "setting": "[5]; 250 g ai/ha", "value": 0}, {"measurement": "Pre-emerge Herbicidal Activity SORHA (phytotoxicity rating, scale 0-100)", "setting": "[6]; 63 g ai/ha", "value": 0}, {"measurement": "Pre-emerge Herbicidal Activity SORHA (phytotoxicity rating, scale 0-100)", "setting": "[6]; 250 g ai/ha", "value": 0}, {"measurement": "Pre-emerge Herbicidal Activity CHEAL (phytotoxicity rating, scale 0-100)", "setting": "[7]; 63 g ai/ha", "value": 0}, {"measurement": "Pre-emerge Herbicidal Activity CHEAL (phytotoxicity rating, scale 0-100)", "setting": "[7]; 250 g ai/ha", "value": 90}, {"measurement": "Pre-emerge Herbicidal Activity DIGSA (phytotoxicity rating, scale 0-100)", "setting": "[8]; 63 g ai/ha", "value": 0}, {"measurement": "Pre-emerge Herbicidal Activity DIGSA (phytotoxicity rating, scale 0-100)", "setting": "[8]; 250 g ai/ha", "value": 0}, {"measurement": "Pre-emerge Herbicidal Activity CASOB (phytotoxicity rating, scale 0-100)", "setting": "[9]; 63 g ai/ha", "value": 0}, {"measurement": "Pre-emerge Herbicidal Activity CASOB (phytotoxicity rating, scale 0-100)", "setting": "[9]; 250 g ai/ha", "value": 0}, {"measurement": "Pre-emerge Herbicidal Activity ABUTH (phytotoxicity rating, scale 0-100)", "setting": "[10]; 63 g ai/ha", "value": 0}, {"measurement": "Pre-emerge Herbicidal Activity ABUTH (phytotoxicity rating, scale 0-100)", "setting": "[10]; 250 g ai/ha", "value": 0}, {"measurement": "Pre-emerge crop damage CORN (phytotoxicity rating, scale 0-100)", "setting": "[11]; 63 g ai/ha", "value": 0}, {"measurement": "Pre-emerge crop damage CORN (phytotoxicity rating, scale 0-100)", "setting": "[11]; 250 g ai/ha", "value": 0}, {"measurement": "Pre-emerge crop damage RICE (phytotoxicity rating, scale 0-100)", "setting": "[12]; 63 g ai/ha", "value": 0}, {"measurement": "Pre-emerge crop damage RICE (phytotoxicity rating, scale 0-100)", "setting": "[12]; 250 g ai/ha", "value": 0}, {"measurement": "Post-emerge Herbicidal Activity ECHCG", "setting": "[13]; 63 g ai/ha", "value": 0}, {"measurement": "Post-emerge Herbicidal Activity ECHCG", "setting": "[13]; 250 g ai/ha", "value": 0}, {"measurement": "Post-emerge Herbicidal Activity AMBEL", "setting": "[14]; 63 g ai/ha", "value": 0}, {"measurement": "Post-emerge Herbicidal Activity AMBEL", "setting": "[14]; 250 g ai/ha", "value": 0}, {"measurement": "Post-emerge Herbicidal Activity SETVI", "setting": "[15]; 63 g ai/ha", "value": 0}, {"measurement": "Post-emerge Herbicidal Activity SETVI", "setting": "[15]; 250 g ai/ha", "value": 0}, {"measurement": "Post-emerge Herbicidal Activity IPOHE", "setting": "[16]; 63 g ai/ha", "value": 0}, {"measurement": "Post-emerge Herbicidal Activity IPOHE", "setting": "[16]; 250 g ai/ha", "value": 30}, {"measurement": "Post-emerge Herbicidal Activity SORHA", "setting": "[17]; 63 g ai/ha", "value": 0}, {"measurement": "Post-emerge Herbicidal Activity SORHA", "setting": "[17]; 250 g ai/ha", "value": 0}, {"measurement": "Post-emerge Herbicidal Activity CHEAL", "setting": "[18]; 63 g ai/ha", "value": 0}, {"measurement": "Post-emerge Herbicidal Activity CHEAL", "setting": "[18]; 250 g ai/ha", "value": 20}, {"measurement": "Post-emerge Herbicidal Activity DIGSA", "setting": "[19]; 63 g ai/ha", "value": 0}, {"measurement": "Post-emerge Herbicidal Activity DIGSA", "setting": "[19]; 250 g ai/ha", "value": 0}, {"measurement": "Post-emerge Herbicidal Activity AMARE", "setting": "[20]; 63 g ai/ha", "value": 0}, {"measurement": "Post-emerge Herbicidal Activity AMARE", "setting": "[20]; 250 g ai/ha", "value": 20}, {"measurement": "Post-emerge Herbicidal Activity CASOB", "setting": "[21]; 63 g ai/ha", "value": 0}, {"measurement": "Post-emerge Herbicidal Activity CASOB", "setting": "[21]; 250 g ai/ha", "value": 0}, {"measurement": "Post-emerge Herbicidal Activity ABUTH", "setting": "[22]; 63 g ai/ha", "value": 0}, {"measurement": "Post-emerge Herbicidal Activity ABUTH", "setting": "[22]; 250 g ai/ha", "value": 40}, {"measurement": "Post-emerge Herbicidal Activity CORN (crop damage)", "setting": "[23]; 63 g ai/ha", "value": 0}, {"measurement": "Post-emerge Herbicidal Activity CORN (crop damage)", "setting": "[23]; 250 g ai/ha", "value": 0}, {"measurement": "Post-emerge Herbicidal Activity RICE (crop damage)", "setting": "[24]; 63 g ai/ha", "value": 0}, {"measurement": "Post-emerge Herbicidal Activity RICE (crop damage)", "setting": "[24]; 250 g ai/ha", "value": 0}]}]}
